Assays:
Assay type in all cases: in vivo
[1] = test system: rats in scopolamine induced memory deficit; assay: Scopolamine induced memory deficit, water labyrinth learning test; conditions: scopolamine model, combination 2 × (30 + 10) mg/kg/day p.o.
[2] = test system: normal mice; assay: Swimming test, physical performance of normal mice; conditions: for Swimming time (sec) mean ± S.E.M.: p.o., Vit-C 2 × 10, Lecithin 2 × 30, combination 2 × (30 + 10) mg/kg/day
Description: In the study ascorbic acid was ineffective, when it was given in itself (Table III.).

[3] = test system: normal rats; assay: Learning process of normal rats in water labyrinth; conditions: for Number of errors Mean ± S.E.M. / Swimming time (sec) Mean ± SEM.: p.o., Vit.-C 2 × 10, Lecithin 2 × 30, combination 2 × (30 + 10) mg/kg/day
Description: Ascorbic acid and lecithin were ineffective when they were given separately (Table I.).

[4] = versus vehicle (control) and single components

CN1[C@@H]2C[C@@H](OC(=O)[C@H](CO)c3ccccc3)C[C@H]1[C@@H]1O[C@@H]12 [Scopolamine, scopolamine]
Number of errors Mean ± S.E.M. ([1]; session 1): 16.2 ± 0.83 | Swimming time (sec) mean ± S.E.M. ([1]; session 1): 114.7 ± 9.45 s | Number of errors Mean ± S.E.M. ([1]; session 2): 11.6 ± 0.52^++ | Swimming time (sec) mean ± S.E.M. ([1]; session 2): 73.7 ± 6.22 s | Number of errors Mean ± S.E.M. ([1]; session 3): 8.9 ± 0.41^++ | Number of errors Mean ± S.E.M. ([1]; session 4): 6.3 ± 0.26^++

O=C1O[C@H]([C@@H](O)CO)C(O)=C1O [Vit.-C, ascorbic acid]
Swimming time (sec) mean ± S.E.M. ([2]; 1. day starting values): 76.2 ± 3.7 s | Swimming time (sec) mean ± S.E.M. ([2]; 2. day): 70.8 ± 3.8 s | Swimming time (sec) mean ± S.E.M. ([2]; 3. day): 82.2 ± 3.4 s | Swimming time (sec) mean ± S.E.M. ([2]; 4. day): 88.8 ± 6.1 s | Swimming time (sec) mean ± S.E.M. ([2]; 5. day): 90.0 ± 6.9 s | Effect on the physical performance of mice in swimming test (in words) [2, 4]: ineffective | Number of errors Mean ± S.E.M. ([3]; session 1): 16.4 ± 0.45 | Swimming time (sec) Mean ± SEM. ([3]; session 1): 140.3 ± 9.54 s | Number of errors Mean ± S.E.M. ([3]; session 2): 11.6 ± 0.40 | Swimming time (sec) Mean ± SEM. ([3]; session 2): 89.9 ± 6.22 s | Number of errors Mean ± S.E.M. ([3]; session 3): 6.2 ± 0.76 | Swimming time (sec) Mean ± SEM. ([3]; session 3): 64.9 ± 7.29 s | Number of errors Mean ± S.E.M. ([3]; session 4): 3.9 ± 0.35 | Swimming time (sec) Mean ± SEM. ([3]; session 4): 34.8 ± 2.79 s | Effect on the learning process of rats in water labyrinth (in words) [3, 4]: ineffective
